Experimental data published in article PMC10945559, “Forgotten Natural Products: Semisynthetic Development of Blasticidin S As an Antibiotic Lead” (ACS Medicinal Chemistry Letters, 2024).
Values after ≈ are worked out from the molar mass of the structure shown. Read-outs that look alike come from different tables or passages of the source.

What was measured:
S. aureus 8810 = experiment: Broth microdilution antibacterial assay; type: cell-based, Staphylococcus aureus; conditions: for Selectivity index (CC50/IC50): MRC-5 CC50 / S. aureus IC50; for IC50 / MIC: Staphylococcus aureus, 8810; for IC50: average of two biological replicates ± S.D., read-out: IC50
Experimental: (§1) Antibacterial Assay Procedure
(§2) Broth Microdilution Assays
(§3) Media and solutions were autoclaved or sterile filtered prior to use and manipulations were carried out in a laminar flow hood. Antibacterial testing was performed in polypropylene 96 -well flat bottom plates. The minimal inhibitory concentration of blasticidin S ( 1) hydrochloride, P10 (2), and derivatives 15–22 were assessed against Staphylococcus aureus ΔNorA, S. aureus 8810, methicillin-resistant S. aureus (MRSA) ATCC 43300, Enterococcus faecalis ATCC 29212, vancomycin-resistant Enterococcus, Klebsiella pneumoniae ATCC 29665, Pseudomonas aeruginosa, and Acinetobacter baumannii ATCC 17978 using serial dilutions. Doxycycline (Gold Bio) as a positive control and the vehicle as a negative control. Stock solutions of each compound were prepared at 5.12 mg/mL in 50% DMSO/water and serially diluted in 50% DMSO/water to create master plates. From the master plates, 10 μL of each dilution was applied to test plates using a Bravo automated liquid transfer system (Agilent). Bacteria previously grown overnight (37 °C, 120 – 200 RPM), in LB broth were diluted to an OD600 of 0.0 5 in cation-adjusted Mueller-Hinton broth, grown to an OD600 of ~0.5, and diluted to an OD600 of 0.004 in cation-adjusted Mueller-Hinton broth. These diluted cultures were applied to the test plates (190 μL per test well) resulting in final concentrations of the test compounds of 256–2 μg/mL. Growth controls (wells with inoculated media but no vehicle or test compounds) were included to assess any potential toxicity from the vehicle. The plates were incubated at 37 °C for 16–18 h, except for VRE and E. faecalis, which were incubated at 37 °C for 24 h. Inhibition was determined by measuring the optical density at 600 nm (OD600) with a Cytation 3 plate reader (BioTek). The optical density measurements were normalized to the positive and negative controls and the vehicle and growth controls were compared and found to be indistinguishable, indicating no toxicity from the vehicle used. The MIC was the lowest concentration that inhibited >90% of growth. Two biological replicates were performed in duplicate. MIC values are reported […]
(§4) as a range from biological replicates. Inhibition curves were generated using Prism (GraphPad).
(§5) The IC50 values reported in Table 2 are the average of the two biological replicates ± standard […]
(§6) Cytotoxicity Assay Procedure
(§7) Human lung fibroblast cells, MRC -5 (CCL-171), were cultured at 37℃ with 5% CO2 and were plated at 5000 cells/well in a 96 -well plate. Compounds 1, 2, and 15-22 were initially prepared at concentrations of 5.12 mg/mL in a vehicle of 50% DMSO. Dilutions of the compounds (4 – 512 μg/mL) were then prepared in growth medium containing Dulbecco’s modified Eagle’s medium (DMEM) with high glucose, L -glutamine, and sodium pyruvate supplemented with 10% fetal bovine serum (FBS), 1% non -essential amino acids, and 0.1% gentamicin sulfate, and 25mM HEPES. The vehicle (50% DMSO) was also prepared via the sa me dilution series to serve as a control. Growth media was removed from the cells and replaced with the same volume of each compound dilution. Cells were incubated for 24 h , after which CellTiter 96® AQueous One Solution Reagent was added to each well as recommended by the manufacturer’s protocol (Promega CellTiter 96 AQueous One Solution Cell Proliferation Assay) and further incubated for 4 h. After incubation, absorbance was measured at 490 nm on an Infinite M plex multimode microplate reader with i -control Tecan software. Viability was calculated by subtracting media only absorbance values and normalizing to the vehicle control at each concentration. The presented data is one assay performed in triplicate that is representative of multiple trials. Data for the 256 and 512 μg/mL concentrations were removed from analysis due to vehicle toxicity […]
(§8) CC50 concentrations were determined via the ED50 Plus v1.0 software (https://archive.org/details/ed50v10_zip).

[1] = test system: methicillin-resistant S. aureus (MRSA) ATCC 43300; experiment: Broth microdilution antibacterial assay; type: cell-based, Staphylococcus aureus; conditions: for Selectivity index (CC50/IC50): MRC-5 CC50 / MRSA IC50; for IC50 / MIC: Staphylococcus aureus; for IC50: average of two biological replicates ± S.D., read-out: IC50
Experimental: as §1, §2, §3, §4, §5, §6, §7, §8

[2] = test system: Acinetobacter baumannii ATCC 17978; experiment: Broth microdilution antibacterial assay; type: cell-based; conditions: for IC50 / MIC: Acinetobacter baumannii, ATCC17978; for IC50: average of two biological replicates ± S.D., read-out: IC50; for Selectivity index (CC50/IC50): MRC-5 CC50 / A. baumannii IC50
Experimental: as §1, §2, §3, §4, §5, §6, §7, §8

[3] = test system: Enterococcus faecalis ATCC 29212; experiment: Broth microdilution antibacterial assay; type: cell-based; conditions: for MIC / IC50: Enterococcus faecalis, ATCC29212; for IC50: average of two biological replicates ± S.D. (18: one biological replicate), read-out: IC50; for Selectivity index (CC50/IC50): MRC-5 CC50 / E. faecalis IC50
Experimental: as §1, §2, §3, §4, §5, §6, §7, §8

[4] = test system: Klebsiella pneumoniae ATCC 29665; experiment: Broth microdilution antibacterial assay; type: cell-based; conditions: for IC50 / MIC: Klebsiella pneumoniae, ATCC29665, K. pneumoniae; for IC50: average of two biological replicates ± S.D., read-out: IC50; for MIC: lowest concentration inhibiting >90% of growth, range from biological replicates, read-out: MIC; for Selectivity index (CC50/IC50): MRC-5 CC50 / K. pneumoniae IC50
Experimental: as §1, §2, §3, §4, §5, §6, §7, §8

Pseudomonas aeruginosa = experiment: Broth microdilution antibacterial assay; type: cell-based; conditions: for Selectivity index (CC50/IC50): MRC-5 CC50 / P. aeruginosa IC50; for MIC / IC50: Pseudomonas aeruginosa; for IC50: P. aeruginosa, average of two biological replicates ± S.D., read-out: IC50
Experimental: as §1, §2, §3, §4, §5, §6, §7, §8

[5] = test system: Staphylococcus aureus ΔNorA; experiment: Broth microdilution antibacterial assay; type: cell-based; conditions: for Selectivity index (CC50/IC50): MRC-5 CC50 / S. aureus ΔNorA IC50; for IC50 / MIC: Staphylococcus aureus
Experimental: as §1, §2, §3, §4, §5, §6, §7, §8

[6] = test system: vancomycin-resistant Enterococcus (VRE); experiment: Broth microdilution antibacterial assay; type: cell-based; conditions: for MIC / IC50: Enterococcus, VRE; for IC50: average of two biological replicates ± S.D., read-out: IC50; for Selectivity index (CC50/IC50): MRC-5 CC50 / VRE IC50
Experimental: as §1, §2, §3, §4, §5, §6, §7, §8

in vitro = type: cell-based, human; conditions: human; MRC-5 (lung fibroblast); 24 h; one biological replicate (n = 3); read-out: CC50 for human cells
Experimental: as §4, §5, §6, §7, §8
Figure S41. The effect of compounds on cell viability. The lines represent non -linear regression curves, and error bars represent means ± […]
SD (n=3). […]

[7] = S. aureus, lowest concentration inhibiting >90% of growth, range from biological replicates, read-out: MIC
[8] = average MIC, Table S3, read-out: Average Activity against S. aureus
[9] = MRSA, lowest concentration inhibiting >90% of growth, range from biological replicates, read-out: MIC
[10] = average MIC, Table S3, read-out: Average Activity against MRSA
[11] = E. faecalis, 24 h, lowest concentration inhibiting >90% of growth, range from biological replicates, read-out: MIC
[12] = average MIC, Table S3, read-out: Average Activity against E. faecalis
[13] = average MIC, Table S3, read-out: Average Activity against VRE
[14] = 24 h, lowest concentration inhibiting >90% of growth, range from biological replicates, read-out: MIC

Compound | Selectivity index (CC50/IC50) (S. aureus 8810) | IC50 (S. aureus 8810; S. aureus) | MIC (S. aureus 8810; [7]) | MIC (S. aureus 8810; [8]) | Selectivity index (CC50/IC50) [1] | IC50 ([1]; MRSA) | MIC [1, 9] | MIC [1, 10] | IC50 ([2]; A. baumannii) | Selectivity index (CC50/IC50) [2] | MIC [3, 11] | IC50 ([3]; E. faecalis) | MIC [3, 12] | Selectivity index (CC50/IC50) [3] | IC50 [4] | MIC [4] | Selectivity index (CC50/IC50) [4] | Selectivity index (CC50/IC50) (Pseudomonas aeruginosa) | MIC (Pseudomonas aeruginosa) | IC50 (Pseudomonas aeruginosa) | further results
CNC(=O)[C@H]1O[C@@H](n2ccc(N)nc2=O)C=C[C@@H]1NC(=O)C[C@@H](N)CCN(C)C(=N)N [Compound 15, Methyl amide] | 8.9 | 5.9 ± 1.2 µg/mL (≈ 13.5 µM) | 32 µg/mL (≈ 73.5 µM) | 32 µg/mL (≈ 73.5 µM) | 4.0 | 13.3 ± 3.3 µg/mL (≈ 30.5 µM) | 32 to 64 µg/mL (≈ 73.5 to 147 µM) | 48 µg/mL (≈ 110 µM) | 18.3 ± 5.3 µg/mL (≈ 42 µM) | 2.9 | 16 to 32 µg/mL (≈ 36.7 to 73.5 µM) | 13.2 ± 3.6 µg/mL (≈ 30.3 µM) | 32 µg/mL (≈ 73.5 µM) | 4.0 | 26.4 ± 4.1 µg/mL (≈ 60.6 µM) | 64 µg/mL (≈ 147 µM) | 2.0 | 2.6 | 64 to 128 µg/mL (≈ 147 to 294 µM) | 20.2 ± 3.4 µg/mL (≈ 46.4 µM) | MIC ([2]; A. baumannii, lowest concentration inhibiting >90% of growth, range from biological replicates, read-out: MIC): 64 µg/mL (≈ 147 µM); Selectivity index (CC50/IC50) [5]: 2.5; IC50 [5]: 21.1 ± 0.4 µg/mL (≈ 48.5 µM); MIC [5]: 128 µg/mL (≈ 294 µM); MIC [6, 13]: 32 µg/mL (≈ 73.5 µM); MIC [6, 14]: 32 µg/mL (≈ 73.5 µM); IC50 [6]: 13.5 ± 3.6 µg/mL (≈ 31 µM); Selectivity index (CC50/IC50) [6]: 3.9; CC50 at 24 h (in vitro): 52.8 µg/mL (≈ 121 µM)
CCNC(=O)[C@H]1O[C@@H](n2ccc(N)nc2=O)C=C[C@@H]1NC(=O)C[C@@H](N)CCN(C)C(=N)N [Compound 16] | 26 | 5.3 ± 1.5 µg/mL (≈ 11.8 µM) | 32 µg/mL (≈ 71.2 µM) | 32 µg/mL (≈ 71.2 µM) | 9.2 | 14.9 ± 1.6 µg/mL (≈ 33.1 µM) | 32 µg/mL (≈ 71.2 µM) | 32 µg/mL (≈ 71.2 µM) | 35.7 ± 11 µg/mL (≈ 79.4 µM) | 3.8 | 16 to 32 µg/mL (≈ 35.6 to 71.2 µM) | 9.6 ± 4 µg/mL (≈ 21.4 µM) | 16 µg/mL (≈ 35.6 µM) | 14 | 60.1 ± 6.2 µg/mL (≈ 134 µM) | 256 µg/mL (≈ 570 µM) | 2.3 | 6.3 | 64 to 128 µg/mL (≈ 142 to 285 µM) | 21.8 ± 2.7 µg/mL (≈ 48.5 µM) | MIC [2]: 128 µg/mL (≈ 285 µM); Selectivity index (CC50/IC50) [5]: 7.0; IC50 [5]: 19.6 ± 1.8 µg/mL (≈ 43.6 µM); MIC [5]: 128 µg/mL (≈ 285 µM); MIC [6, 13]: 64 µg/mL (≈ 142 µM); MIC [6, 14]: 64 µg/mL (≈ 142 µM); IC50 [6]: 20.2 ± 8.1 µg/mL (≈ 44.9 µM); Selectivity index (CC50/IC50) [6]: 6.8; CC50 at 24 h (in vitro): 137 µg/mL (≈ 305 µM)
